Where two headings read alike, the source gives them in different places.
How the values were obtained:
Snk = biological target: T1, Snk (Homo sapiens, UniProt Q9NYY3); test: Kinome profiler screen; type: biochemical; conditions: at 20,000 nM inhibitor; kinase activity remaining
T1 construct: purchased Millipore KinaseProfiler

[1] = Acid dissociation constant (pKa); type: physicochemical; conditions: water with methanol co-solvent, ionic strength 0.15 M KCl, 22±2°C
SAPK2b (SAPK=p38MAPK) = biological target: T2, SAPK2b (SAPK=p38MAPK) (Homo sapiens, UniProt Q15759); test: Kinome profiler screen; type: biochemical; conditions: at 20,000 nM inhibitor; kinase activity remaining
T2 construct: purchased Millipore

MSK2 = biological target: T3, MSK2 (Homo sapiens, UniProt O75676); test: Kinome profiler screen; type: biochemical; conditions: at 20,000 nM inhibitor; kinase activity remaining
T3 construct: purchased Millipore KinaseProfiler
T3 sequence (O75676 whole entry): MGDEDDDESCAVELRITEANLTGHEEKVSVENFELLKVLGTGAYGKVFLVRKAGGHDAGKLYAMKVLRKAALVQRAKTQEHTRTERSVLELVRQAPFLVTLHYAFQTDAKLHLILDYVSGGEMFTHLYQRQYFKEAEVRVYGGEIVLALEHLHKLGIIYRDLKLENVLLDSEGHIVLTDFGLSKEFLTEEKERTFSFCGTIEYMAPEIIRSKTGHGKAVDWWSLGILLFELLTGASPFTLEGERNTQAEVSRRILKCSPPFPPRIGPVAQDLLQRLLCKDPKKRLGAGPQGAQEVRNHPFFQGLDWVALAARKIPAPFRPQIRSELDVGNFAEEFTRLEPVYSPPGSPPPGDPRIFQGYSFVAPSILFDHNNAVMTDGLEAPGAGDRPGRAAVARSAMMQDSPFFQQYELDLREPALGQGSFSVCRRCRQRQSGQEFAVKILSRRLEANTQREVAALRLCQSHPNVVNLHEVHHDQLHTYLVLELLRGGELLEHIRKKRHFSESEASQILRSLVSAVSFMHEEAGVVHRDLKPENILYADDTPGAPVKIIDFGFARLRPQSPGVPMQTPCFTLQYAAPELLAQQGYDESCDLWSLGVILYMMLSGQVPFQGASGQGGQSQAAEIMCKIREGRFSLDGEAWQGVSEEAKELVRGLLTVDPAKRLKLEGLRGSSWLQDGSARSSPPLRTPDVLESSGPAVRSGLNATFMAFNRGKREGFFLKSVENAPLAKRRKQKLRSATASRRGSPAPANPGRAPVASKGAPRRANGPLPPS

NLK = biological target: T4, NLK (Homo sapiens, UniProt Q9UBE8); test: Kinetic analysis, Ki; type: biochemical; design: purchased Millipore
T4 sequence (Q9UBE8 1-527): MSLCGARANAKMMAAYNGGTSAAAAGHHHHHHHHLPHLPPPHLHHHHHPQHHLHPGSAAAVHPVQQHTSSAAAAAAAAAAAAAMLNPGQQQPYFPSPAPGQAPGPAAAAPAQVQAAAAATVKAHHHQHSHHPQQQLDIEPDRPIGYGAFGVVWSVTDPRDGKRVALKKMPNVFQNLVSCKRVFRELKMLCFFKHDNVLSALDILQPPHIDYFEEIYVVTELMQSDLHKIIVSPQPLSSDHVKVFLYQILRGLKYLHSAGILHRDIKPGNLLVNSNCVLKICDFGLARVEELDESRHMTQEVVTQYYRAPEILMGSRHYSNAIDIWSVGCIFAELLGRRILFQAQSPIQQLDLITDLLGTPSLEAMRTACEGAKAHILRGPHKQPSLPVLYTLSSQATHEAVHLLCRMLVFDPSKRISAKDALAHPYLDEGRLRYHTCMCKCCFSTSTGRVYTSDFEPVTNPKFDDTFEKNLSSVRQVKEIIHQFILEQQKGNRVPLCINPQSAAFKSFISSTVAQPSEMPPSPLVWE

JNK1α1 = JNK1α1 (Homo sapiens, UniProt P45983); test: biochemical
Sequence of JNK1α1 (P45983 1-384 isoform P45983-2): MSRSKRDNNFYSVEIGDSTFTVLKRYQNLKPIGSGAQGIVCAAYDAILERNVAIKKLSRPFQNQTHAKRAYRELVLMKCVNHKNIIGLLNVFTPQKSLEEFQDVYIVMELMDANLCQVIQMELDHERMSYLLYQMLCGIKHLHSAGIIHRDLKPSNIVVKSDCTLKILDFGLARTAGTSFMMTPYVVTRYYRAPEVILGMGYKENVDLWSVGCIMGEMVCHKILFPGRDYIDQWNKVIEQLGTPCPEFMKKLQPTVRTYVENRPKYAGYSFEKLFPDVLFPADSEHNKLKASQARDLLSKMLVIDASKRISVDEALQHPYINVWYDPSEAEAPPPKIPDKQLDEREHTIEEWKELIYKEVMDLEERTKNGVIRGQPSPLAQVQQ

panel of 158 GPCRs = test: Functional GPCR agonist and antagonist screen (calcium flux FLIPR); type: cell-based; conditions: outcome in words
[2] = system: PI3 Kinase (p110α (H1047R)/p85α); test: Kinome profiler screen; type: biochemical; conditions: at 20,000 nM inhibitor; kinase activity remaining
PI3 Kinase (p110α/p85α) = biological target: T5, PI3 Kinase (p110α/p85α) (Homo sapiens, UniProt P42336); test: Kinome profiler screen; type: biochemical; conditions: at 20,000 nM inhibitor; kinase activity remaining
T5 construct: purchased Millipore KinaseProfiler
T5 sequence (P42336 whole entry): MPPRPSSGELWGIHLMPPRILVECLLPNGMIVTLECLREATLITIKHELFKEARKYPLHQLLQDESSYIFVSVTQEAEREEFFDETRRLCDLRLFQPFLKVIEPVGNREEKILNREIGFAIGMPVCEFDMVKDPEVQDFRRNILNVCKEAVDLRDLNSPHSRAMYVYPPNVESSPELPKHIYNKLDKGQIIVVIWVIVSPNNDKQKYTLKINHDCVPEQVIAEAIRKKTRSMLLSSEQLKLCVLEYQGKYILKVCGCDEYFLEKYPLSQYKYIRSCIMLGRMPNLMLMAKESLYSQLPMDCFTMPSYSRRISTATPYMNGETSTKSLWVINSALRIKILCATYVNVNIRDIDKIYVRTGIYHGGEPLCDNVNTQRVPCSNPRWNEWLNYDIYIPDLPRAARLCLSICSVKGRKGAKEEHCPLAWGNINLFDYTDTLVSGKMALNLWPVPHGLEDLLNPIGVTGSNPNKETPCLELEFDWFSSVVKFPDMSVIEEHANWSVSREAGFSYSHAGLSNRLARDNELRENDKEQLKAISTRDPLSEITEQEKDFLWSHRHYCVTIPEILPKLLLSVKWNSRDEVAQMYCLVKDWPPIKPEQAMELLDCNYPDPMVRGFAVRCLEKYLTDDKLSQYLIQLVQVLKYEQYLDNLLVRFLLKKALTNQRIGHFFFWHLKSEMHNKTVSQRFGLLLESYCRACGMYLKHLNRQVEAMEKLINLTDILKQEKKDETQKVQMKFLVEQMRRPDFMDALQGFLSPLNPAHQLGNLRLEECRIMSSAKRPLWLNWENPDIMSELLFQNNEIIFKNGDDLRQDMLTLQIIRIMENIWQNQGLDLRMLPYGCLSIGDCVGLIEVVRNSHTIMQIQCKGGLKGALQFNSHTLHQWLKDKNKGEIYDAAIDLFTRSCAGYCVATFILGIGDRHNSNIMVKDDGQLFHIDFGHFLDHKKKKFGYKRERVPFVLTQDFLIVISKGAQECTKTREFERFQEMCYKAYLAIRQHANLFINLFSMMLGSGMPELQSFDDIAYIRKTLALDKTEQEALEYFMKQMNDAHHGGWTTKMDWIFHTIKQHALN
T5 sequence (P27986 whole entry partner): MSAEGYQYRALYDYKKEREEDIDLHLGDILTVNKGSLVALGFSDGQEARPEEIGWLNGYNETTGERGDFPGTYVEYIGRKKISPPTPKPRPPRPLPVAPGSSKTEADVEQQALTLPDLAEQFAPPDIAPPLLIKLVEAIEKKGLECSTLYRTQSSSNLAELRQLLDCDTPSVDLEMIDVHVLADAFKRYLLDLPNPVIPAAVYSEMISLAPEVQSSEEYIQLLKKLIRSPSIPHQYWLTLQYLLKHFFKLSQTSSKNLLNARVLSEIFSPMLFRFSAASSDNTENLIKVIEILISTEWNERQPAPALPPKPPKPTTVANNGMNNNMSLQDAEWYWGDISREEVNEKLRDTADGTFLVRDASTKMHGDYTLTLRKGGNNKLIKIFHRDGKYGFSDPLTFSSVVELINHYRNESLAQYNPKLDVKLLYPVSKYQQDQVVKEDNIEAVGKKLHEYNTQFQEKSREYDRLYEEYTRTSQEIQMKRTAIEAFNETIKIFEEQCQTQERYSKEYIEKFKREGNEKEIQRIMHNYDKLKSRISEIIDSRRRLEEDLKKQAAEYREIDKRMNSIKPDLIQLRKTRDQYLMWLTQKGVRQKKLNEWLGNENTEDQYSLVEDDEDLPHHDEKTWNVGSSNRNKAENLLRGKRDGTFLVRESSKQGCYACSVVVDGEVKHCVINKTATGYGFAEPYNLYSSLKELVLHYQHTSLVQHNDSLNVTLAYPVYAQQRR

SAPK3 (SAPK=p38MAPK) = biological target: T6, SAPK3 (SAPK=p38MAPK) (Homo sapiens, UniProt P53778); test: Kinome profiler screen; type: biochemical; conditions: at 20,000 nM inhibitor; kinase activity remaining
T6 construct: purchased Millipore KinaseProfiler

Blk = biological target: T7, Blk (Homo sapiens, UniProt P51451); test: Kinome profiler screen; type: biochemical; conditions: at 20,000 nM inhibitor; kinase activity remaining
T7 construct: purchased Millipore KinaseProfiler
T7 sequence (P51451 whole entry): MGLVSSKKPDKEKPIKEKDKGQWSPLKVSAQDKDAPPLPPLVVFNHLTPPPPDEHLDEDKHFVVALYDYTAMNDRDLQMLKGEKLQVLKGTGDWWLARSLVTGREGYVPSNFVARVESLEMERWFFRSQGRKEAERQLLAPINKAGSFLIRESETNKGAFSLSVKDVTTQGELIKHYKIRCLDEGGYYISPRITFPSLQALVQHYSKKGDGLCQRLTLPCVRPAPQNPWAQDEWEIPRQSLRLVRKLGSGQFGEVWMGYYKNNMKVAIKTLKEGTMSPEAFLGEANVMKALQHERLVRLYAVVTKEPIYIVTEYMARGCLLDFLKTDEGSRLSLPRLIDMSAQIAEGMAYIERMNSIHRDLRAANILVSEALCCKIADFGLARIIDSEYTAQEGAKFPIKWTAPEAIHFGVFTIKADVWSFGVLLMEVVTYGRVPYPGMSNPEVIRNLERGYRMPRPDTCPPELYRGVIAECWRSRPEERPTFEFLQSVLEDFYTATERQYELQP

[3] = biological target: T8, PI3 Kinase (p110α (H1047R)/p85α) (Homo sapiens, UniProt P42336, H1047R); test: Kinome profiler screen; type: biochemical; conditions: at 20,000 nM inhibitor; kinase activity remaining
T8 construct: purchased Millipore KinaseProfiler
T8 sequence (P42336 whole entry H1047R): as the sequence (P42336 whole entry) above, with H1047R counted along it
T8 sequence (P27986 whole entry partner): as the sequence (P27986 whole entry partner) above

MLCK = test: Kinome profiler screen; type: biochemical; conditions: at 20,000 nM inhibitor; kinase activity remaining
SAPK4 (SAPK=p38MAPK) = biological target: T9, SAPK4 (SAPK=p38MAPK) (Homo sapiens, UniProt O15264); test: Kinome profiler screen; type: biochemical; conditions: at 20,000 nM inhibitor; kinase activity remaining
T9 construct: purchased Millipore KinaseProfiler
T9 sequence (O15264 whole entry): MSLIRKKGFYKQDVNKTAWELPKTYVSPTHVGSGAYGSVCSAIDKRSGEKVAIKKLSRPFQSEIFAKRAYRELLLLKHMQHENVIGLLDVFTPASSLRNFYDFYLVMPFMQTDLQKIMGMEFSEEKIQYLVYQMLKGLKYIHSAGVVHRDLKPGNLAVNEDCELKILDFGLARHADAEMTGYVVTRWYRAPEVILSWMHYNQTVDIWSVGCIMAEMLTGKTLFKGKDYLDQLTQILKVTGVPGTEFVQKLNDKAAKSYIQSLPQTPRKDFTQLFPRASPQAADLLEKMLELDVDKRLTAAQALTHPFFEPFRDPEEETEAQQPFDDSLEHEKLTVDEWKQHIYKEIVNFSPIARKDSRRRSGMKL

[4] = system: phospho-MK-2 (p38αMAPK substrate) in BV-2 cells; test: LPS-induced phosphorylation of MK-2 in BV-2 cells; type: cell-based, murine; conditions: LPS-stimulated BV-2 cells, 60 min
[5] = system: primary microglia from wild-type (WT) mice; test: LPS-induced IL-1β in primary microglia, wild-type; type: cell-based, C57Bl/6 mice; conditions: LPS 3 ng/ml, 24 hrs
[6] = biological target: T10, PI3 Kinase (p110α (E542K)/p85α) (Homo sapiens, UniProt P42336, E542K); test: Kinome profiler screen; type: biochemical; conditions: at 20,000 nM inhibitor; kinase activity remaining
T10 construct: purchased Millipore KinaseProfiler

JNK2α2 = JNK2α2 (Homo sapiens, UniProt P45984); test: biochemical
PI3 kinase (p110α/p65α) = biological target: T11, PI3 kinase (p110α/p65α) (Homo sapiens, UniProt P42336); test: Kinome profiler screen; type: biochemical; conditions: at 20,000 nM inhibitor; kinase activity remaining
T11 construct: purchased Millipore KinaseProfiler

[7] = biological target: T12, PI3 Kinase (p110α (E545K)/p85α) (Homo sapiens, UniProt P42336, E545K); test: Kinome profiler screen; type: biochemical; conditions: at 20,000 nM inhibitor; kinase activity remaining
T12 construct: purchased Millipore KinaseProfiler
T12 sequence (P42336 whole entry E545K): as the sequence (P42336 whole entry) above, with E545K counted along it
T12 sequence (P27986 whole entry partner): as the sequence (P27986 whole entry partner) above

Aurora-C = biological target: T13, Aurora-C (Homo sapiens, UniProt Q9UQB9); test: Kinome profiler screen; type: biochemical; conditions: at 20,000 nM inhibitor; kinase activity remaining
T13 construct: purchased Millipore KinaseProfiler
T13 sequence (Q9UQB9 whole entry): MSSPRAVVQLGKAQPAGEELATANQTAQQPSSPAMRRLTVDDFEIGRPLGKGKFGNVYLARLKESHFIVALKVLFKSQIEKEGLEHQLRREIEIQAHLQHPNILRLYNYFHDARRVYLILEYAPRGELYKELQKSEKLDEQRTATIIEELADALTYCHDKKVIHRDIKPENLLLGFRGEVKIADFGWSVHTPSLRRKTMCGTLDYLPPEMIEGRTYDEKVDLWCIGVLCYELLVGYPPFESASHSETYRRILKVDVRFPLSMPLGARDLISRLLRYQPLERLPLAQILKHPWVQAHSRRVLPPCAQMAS

T1 sequence (Q9NYY3 whole entry): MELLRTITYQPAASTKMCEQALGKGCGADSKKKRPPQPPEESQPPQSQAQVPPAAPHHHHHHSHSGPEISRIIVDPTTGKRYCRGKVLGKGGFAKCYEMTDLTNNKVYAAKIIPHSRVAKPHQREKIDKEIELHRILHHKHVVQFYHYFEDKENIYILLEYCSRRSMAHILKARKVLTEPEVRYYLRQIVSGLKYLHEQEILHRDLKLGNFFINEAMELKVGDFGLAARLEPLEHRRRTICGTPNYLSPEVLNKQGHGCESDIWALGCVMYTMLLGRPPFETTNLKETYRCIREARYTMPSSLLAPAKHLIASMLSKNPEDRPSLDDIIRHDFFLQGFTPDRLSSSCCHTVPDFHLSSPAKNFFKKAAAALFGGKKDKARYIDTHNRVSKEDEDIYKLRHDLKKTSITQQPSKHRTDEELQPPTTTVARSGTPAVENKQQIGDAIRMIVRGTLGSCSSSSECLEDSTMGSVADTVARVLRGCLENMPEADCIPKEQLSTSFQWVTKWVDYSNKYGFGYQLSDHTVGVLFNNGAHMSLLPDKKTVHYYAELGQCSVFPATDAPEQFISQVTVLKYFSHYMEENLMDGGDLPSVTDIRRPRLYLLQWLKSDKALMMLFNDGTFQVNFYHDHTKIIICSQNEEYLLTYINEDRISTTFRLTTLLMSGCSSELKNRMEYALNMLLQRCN

Q: With `CN(C)c1cc(-c2ccncc2)c(-c2cccc3ccccc23)nn1` [MW181, N,N-dimethyl-6-(naphthalen-1-yl)-5-(pyridin-4-yl)pyridazin-3-amine] as the compound, how does the activity at 20 µM (Snk) read?
A: 99%

Q: What about the pKa ([1]; read-out: pKa (UV method), first value) of the same compound?
A: 4.71 ± 0.03

Q: And the pKa ([1]; read-out: pKa (UV method), second value)?
A: 3.19 ± 0.09

Q: What about the pKa ([1]; read-out: pKa (potentiometric method), second value) of the same compound?
A: < 3.5

Q: What about the activity at 20 µM (SAPK2b (SAPK=p38MAPK)) of the same compound?
A: 6%

Q: And the activity at 20 µM (MSK2)?
A: 99%

Q: And the Ki (NLK)?
A: 199 nM

Q: Which results are given for `CN(C)c1cc(-c2ccncc2)c(-c2ccc3ccccc3c2)nn1` [MW108, N, N-dimethyl-6-(naphthalen-2-yl)-5-(pyridin-4-yl)pyridazin-3-amine]?
A: activity at 20 µM (JNK1α1): 96%; Functional GPCR Agonist and Antagonist Screen (panel of 158 GPCRs): negative; activity at 20 µM (Snk): 98%; % Activity [2]: 99%; activity at 20 µM (PI3 Kinase (p110α/p85α)): 98%; activity at 20 µM (SAPK3 (SAPK=p38MAPK)): 87%; activity at 20 µM (Blk): 88%; activity at 20 µM [3]: 99%; % Activity (MLCK): 94%; activity at 20 µM (SAPK4 (SAPK=p38MAPK)): 93%; phosphorylation of the p38α substrate MK2 [4]: inhibited phosphorylation of the p38α substrate MK2 in a concentration-dependent manner; LPS-induced IL-1β production, WT microglia [5]: inhibited LPS-induced IL-1β production; activity at 20 µM [6]: 99%; activity at 20 µM (JNK2α2): 76%; activity at 20 µM (MSK2): 91%; activity at 20 µM (PI3 kinase (p110α/p65α)): 99%; activity at 20 µM [7]: 98%; activity at 20 µM (Aurora-C): 113%

Reference: publication PMC3694096, “Development of Novel In Vivo Chemical Probes to Address CNS Protein Kinase Involvement in Synaptic Dysfunction” (PLoS ONE, 2013)
